# In patent US20230218710A1, “METHOD OF TREATING CORONAVIRUS INFECTIONS” (priority 2020, published 2023):
# Marks after values point to notes of the source that are not given here.
# Legend:
# Apelin Receptor (APJ) = biological target: T1, Apelin Receptor (APJ) (Homo sapiens, UniProt P35414); test: Phosphorylation of ERK1/2 in cultured cells overexpressing APJ; format: cell-based; conditions: 5 min, 100 nM Pyr-Apelin-13 = positive control, acetate salts
# T1 construct: host or cells: CHO-K1 AGTRL1 Gi cells
# T1 sequence (P35414 1-380): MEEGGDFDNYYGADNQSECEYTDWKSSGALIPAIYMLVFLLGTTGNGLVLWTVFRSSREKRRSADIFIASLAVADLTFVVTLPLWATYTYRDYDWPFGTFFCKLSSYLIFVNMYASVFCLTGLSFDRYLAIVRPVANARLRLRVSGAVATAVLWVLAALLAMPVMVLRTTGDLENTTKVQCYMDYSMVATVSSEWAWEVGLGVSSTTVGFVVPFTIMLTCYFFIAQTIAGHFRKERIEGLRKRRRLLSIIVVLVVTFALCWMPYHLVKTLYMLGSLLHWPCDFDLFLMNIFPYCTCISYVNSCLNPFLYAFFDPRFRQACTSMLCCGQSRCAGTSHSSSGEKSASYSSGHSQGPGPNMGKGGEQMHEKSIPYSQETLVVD
# Procedure: The effect of the peptides of the current invention on activation of Apelin Receptor (APJ)-mediated signaling can be assessed using an assay to monitor phospho-ERK/phospho-p44/42 MAPK (p-ERK1/2) levels in cultured cells overexpressing Apelin Receptor (APJ) such as CHO-K1, derived from Chinese hamster ovary. Peptides were initially prepared as 100× stocks in H2O. […] Following a 5 min incubation the supernatant was removed and the cells were placed on ice and washed twice with cold HBSS. The HBSS was removed and the cells were immediately lysed in 300 μl/well of 1× lysis buffer (CST 10× Lysis Buffer; Cell Signaling Technology; Danvers, Mass.); lysis buffer was supplemented with 1 mM PMSF (Millipore-Sigma; Saint Louis, Mo.) and Halt Protease/Phosphatase Inhibitor Cocktail (Thermo-Fisher; Waltham, Mass.) prior to use. The samples were then placed on ice for 10 min, wells were scraped and lysates transferred to microfuge tubes. The samples were centrifuged at 12,500 rpm for 10 min at 4° C. and p-ERK1/2 expression in each sample was measured using Phospho-p44/42 MAPK (Thr202/Tyr204) Sandwich ELISA kit according to manufacturer's instructions (Cell Signaling Technology; Danvers, Mass.). Absorbance was measured using a Cytation 3 plate reader at […] (BioTek; Winooski, Vt.). […] Each data point represents the average of duplicate assays.
# [1] = test system: LPS-induced acute lung injury mouse model; test: LPS-induced acute lung injury model in mouse (Example 7); format: in vivo, mice; conditions: 4 h after LPS, 5 mg/kg i.p.
# Procedure: The effect of the peptides of the current invention on acute lung injury can be assessed in an LPS-induced acute lung injury mouse model by monitoring outcomes such as lung weight, fluid accumulation, cytokine secretion in blood or bronchoalveolar lavage fluid (BALF). Acute lung injury was induced in male C57BL/6 mice (6 to 8 weeks old) by intratracheal administration of 40 μL lipopolysaccharide (LPS) (Sigma Aldrich, St. Louis, Mo.) in PBS at 5 mg/kg. Control animals received intratracheal PBS alone. Animals (n=8 per treatment group) induced with LPS received intraperitoneal treatment with: PBS (vehicle control) or test peptides at 5 mg/kg in water. Treatments were administered 1 h prior to LPS. At 4 h post LPS administration, tissues were harvested. Lungs were weighed, flushed with Hanks Buffer to provide bronchoalveolar lavage fluid (BALF). Data for test peptides were compared to the vehicle control group. Table 11 compares the lung weights following LPS induction and treatment with PBS (vehicle control) or peptides. Table 12 compares the levels of pro-inflammatory cytokines in BALF following LPS induction and treatment with PBS (vehicle control) or peptides.
# [2] = test system: LPS-induced acute lung injury mouse model; test: LPS-induced acute lung injury model in mouse (Example 6); format: in vivo, mice; conditions: histopathology, 24 h after LPS, 5 mg/kg i.p.
# Procedure: The effect of the peptides of the current invention on acute lung injury can be assessed in an LPS-induced acute lung injury mouse model by monitoring outcomes such as lung weight, fluid accumulation, cytokine secretion in blood or bronchoalveolar lavage fluid (BALF), neutrophil infiltration into lung tissues, and assessment of acute lung injury score by histopathology. Acute lung injury was induced in male C57BL/6 mice (6 to 8 weeks old) by intratracheal administration of 40 μL lipopolysaccharide (LPS) (Sigma Aldrich, St. Louis, Mo.) in PBS at 5 mg/kg. Control animals received intratracheal PBS alone. […] Treatments were administered 1 h prior to LPS for animals designated for sacrifice at 4 h after LPS, or at both 1 h prior to and 6 h after LPS for animals designated for sacrifice at 24 h after LPS. At 4 or 24 hours post LPS administration, tissues were harvested. Lungs were weighed, flushed with Hanks Buffer to provide bronchoalveolar lavage fluid (BALF). Lungs were fixed in 10% neutral buffered formalin (NBF) for histopathology. Tissue slides were stained with hematoxylin and eosin (H&E) and evaluated and scored with light microscopy of 5 representative microscopic fields (100× magnification) scoring on a 0-5 scale using standard methods (Matute-Bello G et al 2011. An Official American Thoracic Society Workshop Report: Features and Measurements of Experimental Acute Lung Injury in Animals. Am J Respir Cell Mol Biol 44:725-38). The average score for five fields was calculated for each animal. Levels of pro-inflammatory cytokines in BALF were determined using a meso scale discovery (MSD) system. Data for test peptides were compared to the vehicle control group. Lung weights were normalized to body weight.
substance,measurement,setting,value
(PEG12)KRRLLGLVFQSLCG(dA) (KRRLLGLVFQSLCGA; N-terminal PEG12; C-terminal D-alanine; (1)..(1) PEG12; (15)..(15) D-Ala) [SEQ ID NO: 37],pERK1/2 (% of Positive Control),Apelin Receptor (APJ); 0.4 μM peptide,9.9%
same,pERK1/2 (% of Positive Control),Apelin Receptor (APJ); 2.0 μM peptide,27.3%
same,pERK1/2 (% of Positive Control),Apelin Receptor (APJ); 10 μM peptide,54.2%
same,pERK1/2 (% of Positive Control),Apelin Receptor (APJ); 50 μM peptide,88.4%
same,Mean (SEM) Lung Weight,[1],0.259 (0.004)*** g
same,Pro-inflammatory Cytokine Level IFNγ,[1]; BALF,0.13 pg/mL
same,Pro-inflammatory Cytokine Level IL-1β,[1]; BALF,72.5 pg/mL
same,Pro-inflammatory Cytokine Level IL-2,[1]; BALF,0.60 pg/mL
same,Pro-inflammatory Cytokine Level IL-4,[1]; BALF,0.86 pg/mL
same,Pro-inflammatory Cytokine Level IL-6,[1]; BALF,3080 pg/mL
same,Pro-inflammatory Cytokine Level IL-9,[1]; BALF,4.74 pg/mL
same,Pro-inflammatory Cytokine Level KC/GRO,[1]; BALF,2660 pg/mL
same,Pro-inflammatory Cytokine Level TNFα,[1]; BALF,3850 pg/mL
same,Mean (SEM) Alveolar Neutrophil Infiltration Score,[2]; 0-5 scale,1.50 (0.14)
same,Mean (SEM) Interstitial Neutrophil Infiltration Score,[2]; 0-5 scale,1.30 (0.11)
same,Mean (SEM) Composite Lung Injury Score,[2],2.83 (0.23)
